Assays:
Assay type in all cases: in vivo, human
[1] = system: patients with acute ischemic stroke or high-risk TIA; assay: AXIOMATIC-SSP clinical (symptomatic) ischemic stroke and undetermined stroke events, all randomized participants
Procedure: The primary efficacy endpoint was the composite of incident ischemic stroke during the treatment period or new covert brain infarction detected by the comparison of 90-day and baseline MRIs. All images were read independently by 2 blinded neuroradiologists, and disagreements were resolved by consensus. […] Clinically overt strokes were determined by site investigators following standardized definitions. Briefly, to qualify as an outcome event, a clinical diagnosis of stroke required a sustained increase in the NIHSS score of ≥3 points that was not explained by other factors, such as infection, or was confirmed by imaging as a new infarct. Covert brain infarction is defined as small ischemic cerebral lesions that are detected on Day 90 MRI in the absence of a symptomatic ischemic stroke event. […]

[2] = system: patients with acute ischemic stroke or high-risk TIA; assay: AXIOMATIC-SSP vascular territory of incident infarcts at Day 90 compared with baseline
Description: At baseline, recent ischemic lesions were detected and quantified using the DWI sequence. Incident infarcts (defined as new imaging lesions compared to the baseline MRI which may be associated with a symptomatic ischemic stroke or be covert in nature) were detected at Day 90 on the FLAIR sequence and categorized as DWI positive or DWI negative based on whether they could also be detected on the DWI sequence. DWI positive lesions at Day 90 were likely associated with infarctions occurring late during the follow-up period (approximately from Day 30 to Day 90) while DWI negative lesions were more likely related to earlier infarctions (approximately occurring by Day 30). The vascular territory of incident infarcts was also assessed at Day 90.

[3] = system: patients with acute ischemic stroke or high-risk TIA; assay: AXIOMATIC-SSP primary efficacy: composite of new clinical ischemic stroke during treatment and new covert brain infarction detected by MRI on Day 90; conditions: modified ITT
Procedure: The main objective is to determine the dose-response relationship of milvexian in participants with acute ischemic stroke or TIA who are treated with aspirin and clopidogrel. The main secondary objective is to assess the rate of major bleeding in this population compared with placebo.
The primary efficacy endpoint was the composite of incident ischemic stroke during the treatment period or new covert brain infarction detected by the comparison of 90-day and baseline MRIs. All images were read independently by 2 blinded neuroradiologists, and disagreements were resolved by consensus. […] Clinically overt strokes were determined by site investigators following standardized definitions. Briefly, to qualify as an outcome event, a clinical diagnosis of stroke required a sustained increase in the NIHSS score of ≥3 points that was not explained by other factors, such as infection, or was confirmed by imaging as a new infarct. Covert brain infarction is defined as small ischemic cerebral lesions that are detected on Day 90 MRI in the absence of a symptomatic ischemic stroke event.
All randomized participants will be included in the analysis of the primary endpoint if they have either a symptomatic ischemic stroke event by day 90 or an evaluable MRI at the day 90 visit. Because of the COVID-19 pandemic, all day 90 visit MRIs will be included in the primary analysis, regardless of timing. All other efficacy analyses will be performed on a randomized (intent-to-treat, ITT) population up to day 90.
The population for the primary efficacy endpoint analysis include all randomized participants who have (i) a primary endpoint event (a new ischemic stroke during the study period or a new covert brain infarction detected by MRI on Day 90) or (ii) an evaluable MRI image on Day 90.
The primary efficacy outcome was to assess dose response for the composite of new clinical ischemic stroke during treatment and new covert brain infarction detected by MRI on Day 90 in a modified ITT population (those participants with either a clinical ischemic stroke or a Day 90 MRI).

[4] = system: intrinsic coagulation pathway; assay: AXIOMATIC-SSP pharmacodynamics: activated partial thromboplastin time (aPTT) and percent change from baseline; conditions: for aPTT Percent Change from Baseline Mean / aPTT Percent Change from Baseline Median / aPTT Value Mean / aPTT Value Median: 50 mg BID

C[C@@H]1CCC[C@H](n2cnc(-c3cc(Cl)ccc3-n3cc(Cl)nn3)cc2=O)c2cc(ccn2)-c2c(cnn2C(F)F)NC1=O [milvexian, (5R,9S)-9-(4-(5-chloro-2-(4-chloro-1H-1,2,3-triazol-1-yl)phenyl)-6-oxopyrimidin-1(6H)-yl)-21-(difluoromethyl)-5-methyl-21H-3-aza-1(4,2)-pyridina-2(5,4)-pyrazolacyclonaphan-4-one] was tested, and the “Subjects With Hemorragic Stroke n” value ([1]; 25 mg BID, N = 318) was 0, the “Subjects With Hemorragic Stroke, Incidence Rate (n/N %)” value ([1]; 25 mg BID, N = 318) was “(0) %” and the “Subjects With Undetermined Stroke, Incidence Rate (n/N %)” value ([1]; 25 mg BID, N = 318) was “(0) %”. The “Symptomatic Stroke Events: Subjects With Event, Incidence Rate (n/N %)” value (“Symptomatic Stroke Events … (n/N %)” for short) ([1]; 25 mg BID, N = 318) was “(3.8) %”, the “Subjects With Hemorragic Stroke n” value ([1]; 25 mg QD, N = 328) was 0 and the “Subjects With Hemorragic Stroke, Incidence Rate (n/N %)” value ([1]; 25 mg QD, N = 328) was “(0) %”. The “Subjects With Ischemic Stroke n” value ([1]; 25 mg QD, N = 328) was 15, the “Subjects With Undetermined Stroke, Incidence Rate (n/N %)” value ([1]; 25 mg QD, N = 328) was “(0) %” and the “Symptomatic Stroke Events: Subjects With Event n” value ([1]; 25 mg QD, N = 328) was 15. For the same compound, the “Symptomatic Stroke Events … (n/N %)” value ([1]; 25 mg QD, N = 328) was “(4.6) %”, the “HR for preventing clinical ischemic strokes vs placebo” value ([1]; 25 mg twice daily, 95% CI 0.36-1.30) was 0.69 and the “Subjects With Hemorragic Stroke n” value ([1]; 50 mg BID, N = 328) was 0. For the same compound, the “Subjects With Hemorragic Stroke, Incidence Rate (n/N %)” value ([1]; 50 mg BID, N = 328) was “(0) %”, the “Subjects With Undetermined Stroke, Incidence Rate (n/N %)” value ([1]; 50 mg BID, N = 328) was “(0) %” and the “Symptomatic Stroke Events … (n/N %)” value ([1]; 50 mg BID, N = 328) was “(4.0) %”. For the same compound, the “Subjects With Hemorragic Stroke n” value ([1]; 100 mg BID, N = 310) was 0, the “Subjects With Hemorragic Stroke, Incidence Rate (n/N %)” value ([1]; 100 mg BID, N = 310) was “(0) %” and the “Subjects With Undetermined Stroke, Incidence Rate (n/N %)” value ([1]; 100 mg BID, N = 310) was “(0) %”. For the same compound, the “Symptomatic Stroke Events … (n/N %)” value ([1]; 100 mg BID, N = 310) was “(3.5) %”, the “Subjects With Hemorragic Stroke n” value ([1]; 200 mg BID, N = 351) was 0 and the “Subjects With Hemorragic Stroke, Incidence Rate (n/N %)” value ([1]; 200 mg BID, N = 351) was “(0) %”. For the same compound, the “Subjects With Undetermined Stroke, Incidence Rate (n/N %)” value ([1]; 200 mg BID, N = 351) was “(0) %”, the “Symptomatic Stroke Events … (n/N %)” value ([1]; 200 mg BID, N = 351) was “(7.7) %” and the “time point for apparent onset of the clinical benefit vs placebo (Kaplan-Meier, time to ischemic stroke)” value ([1]; pooled doses of milvexian) was “about 10 days”. The “Incident infarcts at Day 90 by vascular territory: subjects (percent, in parentheses)” value (from here on “Incident infarcts … (percent, in parentheses)”) ([2]; ACA, 25 BID, N = 285) was “(1.1)”, the “Incident infarcts … (percent, in parentheses)” value ([2]; ACA, 25 QD, N = 305) was “(0.3)” and the “Incident infarcts … (percent, in parentheses)” value ([2]; ACA, 50 BID, N = 306) was “(1.3)”. The “Incident infarcts … (percent, in parentheses)” value ([2]; AChA, 50 BID, N = 306) was “(0.3)”, the “Incident infarcts … (percent, in parentheses)” value ([2]; AChA, 100 BID, N = 275) was “(0.4)” and the “Incident infarcts … (percent, in parentheses)” value ([2]; AChA, 200 BID, N = 311) was “(0.4)”. The “Incident infarcts … (percent, in parentheses)” value ([2]; BASILAR - MIDBRAIN, 25 QD, N = 305) was “(0.3)”, the “Incident infarcts … (percent, in parentheses)” value ([2]; BASILAR - PONS, 50 BID, N = 306) was “(0.3)” and the “Incident infarcts … (percent, in parentheses)” value ([2]; BASILAR - THALAMUS, 25 BID, N = 285) was “(0.7)”. For the same compound, the “Incident infarcts … (percent, in parentheses)” value ([2]; BASILAR - THALAMUS, 25 QD, N = 305) was “(0.3)”, the “Incident infarcts … (percent, in parentheses)” value ([2]; BASILAR - THALAMUS, 50 BID, N = 306) was “(0.3)” and the “Incident infarcts … (percent, in parentheses)” value ([2]; LENTICULO-STRIATE ARTERIES, 25 BID, N = 285) was “(2.1)”. The “Incident infarcts … (percent, in parentheses)” value ([2]; LENTICULO-STRIATE ARTERIES, 25 QD, N = 305) was “(2.0)”, the “Incident infarcts … (percent, in parentheses)” value ([2]; LENTICULO-STRIATE ARTERIES, 50 BID, N = 306) was “(1.3)” and the “Incident infarcts … (percent, in parentheses)” value ([2]; LENTICULO-STRIATE ARTERIES, 100 BID, N = 275) was “(1.5)”. The “Incident infarcts … (percent, in parentheses)” value ([2]; LENTICULO-STRIATE ARTERIES, 200 BID, N = 311) was “(1.5)”, the “Incident infarcts … (percent, in parentheses)” value ([2]; MCA, 25 BID, N = 285) was “(4.9)” and the “Incident infarcts … (percent, in parentheses)” value ([2]; MCA, 25 QD, N = 305) was “(4.9)”. For the same compound, the “Incident infarcts … (percent, in parentheses)” value ([2]; MCA, 50 BID, N = 306) was “(4.2)”, the “Incident infarcts … (percent, in parentheses)” value ([2]; MCA, 100 BID, N = 275) was “(4.7)” and the “Incident infarcts … (percent, in parentheses)” value ([2]; MCA, 200 BID, N = 311) was “(4.7)”. For the same compound, the “Incident infarcts … (percent, in parentheses)” value ([2]; PCA, 25 BID, N = 285) was “(1.4)”, the “Incident infarcts … (percent, in parentheses)” value ([2]; PCA, 25 QD, N = 305) was “(2.6)” and the “Incident infarcts … (percent, in parentheses)” value ([2]; PCA, 50 BID, N = 306) was “(2.0)”. For the same compound, the “Incident infarcts … (percent, in parentheses)” value ([2]; PCA, 100 BID, N = 275) was “(2.5)”, the “Incident infarcts … (percent, in parentheses)” value ([2]; PCA, 200 BID, N = 311) was “(2.5)” and the “Incident infarcts … (percent, in parentheses)” value ([2]; PICA, 25 BID, N = 285) was “(1.1)”. For the same compound, the “Incident infarcts … (percent, in parentheses)” value ([2]; PICA, 25 QD, N = 305) was “(0.3)”, the “Incident infarcts … (percent, in parentheses)” value ([2]; PICA, 100 BID, N = 275) was “(1.1)” and the “Incident infarcts … (percent, in parentheses)” value ([2]; PICA, 200 BID, N = 311) was “(1.1)”. For the same compound, the “Incident infarcts … (percent, in parentheses)” value ([2]; SCA, 25 BID, N = 285) was “(0.7)”, the “Incident infarcts … (percent, in parentheses)” value ([2]; SCA, 25 QD, N = 305) was “(0.7)” and the “Incident infarcts … (percent, in parentheses)” value ([2]; SCA, 100 BID, N = 275) was “(0.4)”. For the same compound, the “Incident infarcts … (percent, in parentheses)” value ([2]; SCA, 200 BID, N = 311) was “(0.4)”, the “incidence rate (n/N %) of composite of new clinical ischemic stroke and new covert brain infarction detected by MRI on Day 90” value (shortened to “incidence rate (n/N %) of composite … on Day 90”) ([3]; 25 mg once daily) was 16.2% and the “incidence rate (n/N %) of composite … on Day 90” value ([3]; 25 mg twice daily) was 18.5%. For the same compound, the “incidence rate (n/N %) of composite … on Day 90” value ([3]; 50 mg twice daily) was 14.1%, the “incidence rate (n/N %) of composite … on Day 90” value ([3]; 100 mg twice daily) was 14.7% and the “incidence rate (n/N %) of composite … on Day 90” value ([3]; 200 mg twice daily) was 16.4%. For the same compound, the “aPTT Percent Change from Baseline Mean” value ([4]; DAY 1 24 h, N 269) was 85.17%, the “aPTT Percent Change from Baseline Median” value ([4]; DAY 1 24 h, N 269) was 81.89% and the “aPTT Value Mean” value ([4]; DAY 1 24 h, N 269) was 49.38 s. For the same compound, the “aPTT Value Median” value ([4]; DAY 1 24 h, N 269) was 48.60 s, the “aPTT Percent Change from Baseline Mean” value ([4]; DAY 21 anytime, N 268) was 115.62% and the “aPTT Percent Change from Baseline Median” value ([4]; DAY 21 anytime, N 268) was 112.6%. The “aPTT Value Mean” value ([4]; DAY 21 anytime, N 268) was 57.27 s, the “aPTT Value Median” value ([4]; DAY 21 anytime, N 268) was 55.10 s and the “aPTT Percent Change from Baseline Mean” value ([4]; DAY 90 anytime, N 241) was 97.32%. The “aPTT Percent Change from Baseline Median” value ([4]; DAY 90 anytime, N 241) was 101.18%, the “aPTT Value Mean” value ([4]; DAY 90 anytime, N 241) was 52.00 s and the “aPTT Value Median” value ([4]; DAY 90 anytime, N 241) was 52.60 s. For the same compound, the “change in aPTT from baseline” value ([4]; milvexian treated groups) was “Dose-dependent increases”.
